In US20060069132A1, “Azolecarboxamide herbicides” (priority 2004, published 2006):

Assays:
[1] = test system: goosegrass; assay: Test C pre-/postemergence herbicide test; type: in vivo, Eleusine indica
Outline: (§1)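 Pre- and postemergence application, solvent/surfactant formulation; post at 1- to 4-leaf stage (2–18 cm). Greenhouse 12–14 d. Visual rating vs controls, 0 = no effect, 100 = complete control.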

[2] = test system: smallflower umbrella sedge; assay: Test C flooded paddy test; type: in vivo, Cyperus difformis
[3] = test system: yellow nutsedge; assay: Test C pre-/postemergence herbicide test; type: in vivo, Cyperus esculentus
Outline: as §1

[4] = test system: soybean; assay: Test C pre-/postemergence herbicide test; type: in vivo, Glycine max
Outline: as §1

[5] = test system: rice; assay: Test C flooded paddy test; type: in vivo, Oryza sativa
Outline: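 Plants were grown to the 1- to 4-leaf stage (2–18 cm) and then treated postemergence, or grown to the 2-leaf stage for the flooded paddy test. They were held in a greenhouse for 12 to 14 days and then scored by eye against controls, where 0 is no effect and 100 is complete control.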

[6] = test system: rice; assay: Test B pre-/postemergence herbicide test; type: in vivo, Oryza sativa; conditions: preemergence; for Rice plant response rating (0 to 100 scale) / Plant response rating (0 to 100 scale), Rice: 125 g ai/ha; for Plant response rating, Rice: 500 g ai/ha; for Plant response rating (0 to 100 scale), Rice: 0 is no effect, 100 is complete control
Outline: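 Formulation: non-phytotoxic solvent mix with surfactant. Timing: preemergence on seed and postemergence on 2–18 cm plants, applied concurrently. Readout after 13–15 d greenhouse: visual 0–100 control rating against controls.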

[7] = test system: eastern black nightshade; assay: Test C pre-/postemergence herbicide test; type: in vivo, Solanum ptycanthum; conditions: for Plant response rating, Nightshade: preemergence; for Nightshade plant response rating: Preemergence, scale 0 to 100, 0 no effect, 100 complete control
Outline: as §1

[8] = test system: morningglory; assay: Test A pre-/postemergence herbicide test; type: in vivo, Ipomoea spp.
Outline: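 Visual injury rating on a 0–100 scale (0 no effect, 100 complete control) versus untreated controls, about ten days after treatment in greenhouse. Pre: directed soil spray onto seeded sandy loam. Post: spray to runoff on plants 2–10 cm tall at one- to two-leaf stage.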

[9] = 62 g ai/ha, preemergence, scale 0 to 100
[10] = 125 g ai/ha, scale 0 (no effect) to 100 (complete control), visual, 12 to 14 days, preemergence
[11] = 250 g ai/ha, scale 0-100, preemergence
[12] = 500 g ai/ha, scale 0 to 100 (0 no effect, 100 complete control), visual, 12 to 14 days, preemergence
[13] = 125 g ai/ha, scale 0 to 100 (0 no effect, 100 complete control)
[14] = 250 g ai/ha, scale of 0 to 100, 0 is no effect, 100 is complete control
[15] = 500 g ai/ha, visual rating after 12 to 14 days, scale 0 to 100 (0 no effect, 100 complete control)
[16] = 0 = no effect, 100 = complete control
[17] = visual rating, 0 = no effect, 100 = complete control
[18] = 125 g ai/ha, scale 0 (no effect) to 100 (complete control), visual, 12 to 14 days
[19] = 500 g ai/ha, scale 0 to 100 (0 no effect, 100 complete control), visual, 12 to 14 days
[20] = Preemergence, 500 g ai/ha, scale 0 to 100, 0 no effect, 100 complete control
[21] = Postemergence, 500 g ai/ha, 0 to 100 scale, 0 no effect, 100 complete control
[22] = Postemergence, 2000 g ai/ha, 0 to 100 scale, 0 no effect, 100 complete control
[23] = Preemergence, 2000 g ai/ha, visual rating, 0 to 100 scale (0 no effect, 100 complete control)
[24] = preemergence, 500 g ai/ha, visual injury, 0 to 100 scale (0 no effect, 100 complete control)
[25] = visual rating 0-100, 0 no effect, 100 complete control
[26] = Postemergence, 500 g ai/ha, scale 0 to 100
[27] = Postemergence, 250 g ai/ha, scale 0 to 100, 0 no effect, 100 complete control
[28] = postemergence, 125 g ai/ha, scale 0 to 100
[29] = postemergence, 62 g ai/ha, scale 0 to 100

SMILES	Plant response rating, Goosegrass [1, 9]	Plant response rating, Goosegrass [1, 10]	Plant response rating, Goosegrass [1, 11]	Plant response rating, Goosegrass [1, 12]	Plant response rating, Nutsedge, Yellow [3, 9]	Plant response rating, Nutsedge, Yellow [3, 10]	Plant response rating, Nutsedge, Yellow [3, 11]	Plant response rating, Nutsedge, Yellow [3, 12]	Plant response rating, Soybean [4, 9]	Plant response rating, Soybean [4, 11]	Rice plant response rating (0 to 100 scale) [6, 16]	Plant response rating, Rice [6, 17]	Plant response rating, Nightshade ([7]; 62 g ai/ha, scale 0 to 100)	Plant response rating, Nightshade [7, 18]	Plant response rating, Nightshade ([7]; 250 g ai/ha, scale 0-100)	Plant response rating, Nightshade [7, 19]	Morningglory plant response rating [8, 21]	Plant response rating, Morningglory [8, 22]	Morningglory plant response rating [8, 23]	Morningglory plant response rating [8, 24]	further results
CCN1N=C(C(C)(C)C)CC1C(=O)Nc1cc(C(=O)N2CC=CC2)ccc1F (racemic) [Compound 310]	70	80	95	95	0	0	0	15	0	30	40	80	30	35	100	100	–	–	–	–	Sedge, Umbrella plant response rating ([2]; 62 g ai/ha, scale 0 to 100): 35; Sedge, Umbrella plant response rating [2, 13]: 85; Sedge, Umbrella plant response rating [2, 14]: 85; Plant response rating, Sedge, Umbrella [2, 15]: 85; Rice plant response rating ([5]; 62 g ai/ha, scale 0 to 100): 35; Rice plant response rating [5, 13]: 60; Rice plant response rating [5, 14]: 70; Plant response rating, Rice [5, 15]: 80
CCN(CC)C(=O)c1cccc(NC(=O)c2sc(C(C)(C)C)nc2C)c1 [Compound 199]	5	70	90	–	0	0	0	–	0	5	0	–	85	95	100	–	45	70	55	15	Goosegrass plant response rating [1, 20]: 95; Nutsedge, Yellow plant response rating [3, 20]: 0; Plant response rating, Soybean [4, 10]: 0; Soybean plant response rating [4, 20]: 30; Plant response rating, Rice [6, 25]: 20; Nightshade plant response rating ([7]; 500 g ai/ha): 100
CCc1nc(C(C)(C)C)sc1C(=O)Nc1cccc(C(=O)N(CC)CC)c1 [Compound 205]	50	70	80	–	0	0	0	–	–	20	10	–	80	100	100	–	25	20	45	30	Goosegrass plant response rating [1, 20]: 95; Nutsedge, Yellow plant response rating [3, 20]: 10; Plant response rating, Soybean [4, 10]: 20; Soybean plant response rating [4, 20]: 60; Plant response rating, Rice [6, 25]: 70; Nightshade plant response rating ([7]; 500 g ai/ha): 100
CCc1nc(C(C)(C)C)sc1C(=O)Nc1cccc(C(=O)NCC2CC2)c1 [Compound 212]	10	60	95	100	0	0	0	0	0	0	10	–	70	100	100	100	15	20	65	30	Goosegrass plant response rating [1, 26]: 30; Plant response rating, Goosegrass [1, 27]: 25; Plant response rating, Goosegrass [1, 28]: 10; Plant response rating, Goosegrass [1, 29]: 10; Nutsedge, Yellow plant response rating [3, 26]: 20; Plant response rating, Nutsedge, Yellow [3, 27]: 20; Plant response rating, Nutsedge, Yellow [3, 28]: 10; Plant response rating, Nutsedge, Yellow [3, 29]: 0; Plant response rating, Soybean [4, 10]: 0; Plant response rating, Soybean [4, 12]: 60; Soybean plant response rating [4, 26]: 85; Plant response rating, Soybean [4, 27]: 70; Plant response rating, Soybean [4, 28]: 60; Plant response rating, Soybean [4, 29]: 50; Plant response rating, Rice [6, 25]: 20
CCN(CC)C(=O)c1cccc(NC(=O)c2cc(C(C)(C)C)nn2C)n1 [Compound 314]	0	40	65	85	0	0	0	0	0	40	–	10	60	85	90	100	30	50	30	10	Plant response rating, Soybean [4, 12]: 40; Plant response rating (0 to 100 scale), Rice [6]: 0
C=CCNC(=O)c1cccc(NC(=O)c2cc(C(C)(C)C)nn2C)n1 [Compound 318]	0	10	80	90	0	0	0	0	0	10	–	50	80	90	95	95	50	55	50	20	Goosegrass plant response rating [1, 26]: 5; Plant response rating, Goosegrass [1, 27]: 5; Plant response rating, Goosegrass [1, 28]: 0; Plant response rating, Goosegrass [1, 29]: 0; Nutsedge, Yellow plant response rating [3, 26]: 0; Plant response rating, Nutsedge, Yellow [3, 27]: 0; Plant response rating, Nutsedge, Yellow [3, 28]: 0; Plant response rating, Nutsedge, Yellow [3, 29]: 0; Plant response rating, Soybean [4, 12]: 40; Soybean plant response rating [4, 26]: 90; Plant response rating, Soybean [4, 27]: 80; Plant response rating, Soybean [4, 28]: 70; Plant response rating, Soybean [4, 29]: 65; Plant response rating (0 to 100 scale), Rice [6]: 0
